We go through seven molecules from ChEMBL document CHEMBL5465560, “Selectivity Literature for EUbOPEN Chemogenomic Library” (2024).

A value given as a limit tells only on which side of the number the result lay.

For assay [1], the target named is T1, Phosphorylase b kinase gamma catalytic chain, liver/testis isoform (Homo sapiens) (UniProt P15735).
T1 sequence (whole entry): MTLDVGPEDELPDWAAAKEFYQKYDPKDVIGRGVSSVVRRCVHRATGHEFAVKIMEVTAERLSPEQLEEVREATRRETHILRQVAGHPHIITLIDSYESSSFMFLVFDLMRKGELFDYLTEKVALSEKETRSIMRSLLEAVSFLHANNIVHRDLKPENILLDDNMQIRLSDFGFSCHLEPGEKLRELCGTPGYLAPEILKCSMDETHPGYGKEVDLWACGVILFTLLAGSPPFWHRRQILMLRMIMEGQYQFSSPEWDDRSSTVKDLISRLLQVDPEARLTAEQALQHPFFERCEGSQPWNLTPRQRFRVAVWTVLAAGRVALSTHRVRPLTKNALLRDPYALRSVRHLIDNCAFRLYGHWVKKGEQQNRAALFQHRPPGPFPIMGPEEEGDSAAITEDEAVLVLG
In words: Selectivity interaction (Ambit KINOMEscan and KiNATiv profiling in Jurkat cells) EUB0000090b PHKG2. To be noted: at 1 µM. In kind it is cell-based.

Assay [2] addresses T2, Protein kinase C epsilon type (Homo sapiens) (UniProt Q02156).
T2 sequence (whole entry): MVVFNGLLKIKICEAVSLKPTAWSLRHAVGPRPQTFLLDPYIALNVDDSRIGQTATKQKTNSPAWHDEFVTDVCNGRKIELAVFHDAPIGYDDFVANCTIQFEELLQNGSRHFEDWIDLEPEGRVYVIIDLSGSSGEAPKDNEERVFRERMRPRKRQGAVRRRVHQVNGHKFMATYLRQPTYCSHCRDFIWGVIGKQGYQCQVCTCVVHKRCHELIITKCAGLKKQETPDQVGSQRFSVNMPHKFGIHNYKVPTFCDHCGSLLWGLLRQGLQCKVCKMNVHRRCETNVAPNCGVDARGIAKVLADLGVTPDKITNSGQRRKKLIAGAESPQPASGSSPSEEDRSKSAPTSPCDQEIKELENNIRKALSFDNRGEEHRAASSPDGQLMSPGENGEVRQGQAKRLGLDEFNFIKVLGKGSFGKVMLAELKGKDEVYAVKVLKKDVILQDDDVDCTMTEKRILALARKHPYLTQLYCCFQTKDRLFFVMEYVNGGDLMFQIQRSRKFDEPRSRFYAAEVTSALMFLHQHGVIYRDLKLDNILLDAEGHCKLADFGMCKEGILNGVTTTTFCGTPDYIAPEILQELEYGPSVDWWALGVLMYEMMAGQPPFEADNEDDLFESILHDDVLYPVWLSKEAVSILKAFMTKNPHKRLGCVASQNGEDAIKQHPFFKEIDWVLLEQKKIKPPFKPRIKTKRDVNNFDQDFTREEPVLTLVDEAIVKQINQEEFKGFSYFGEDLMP
The experiment in a line: Selectivity interaction (SelectScreen profiling (Invitrogen)) EUB0000607a PRKCE. To be noted: at 2 µM.

Assay [3] concerns the target MAP kinase-activated protein kinase 3 (Homo sapiens) (UniProt Q16644). In words: Selectivity interaction (SelectScreen profiling (Invitrogen)) EUB0000607a MAPKAPK3. As to conditions: at 2 µM.
The target in assay [4] is T3, Serine/threonine-protein kinase Sgk3 (Homo sapiens) (UniProt Q96BR1).
T3 sequence (whole entry): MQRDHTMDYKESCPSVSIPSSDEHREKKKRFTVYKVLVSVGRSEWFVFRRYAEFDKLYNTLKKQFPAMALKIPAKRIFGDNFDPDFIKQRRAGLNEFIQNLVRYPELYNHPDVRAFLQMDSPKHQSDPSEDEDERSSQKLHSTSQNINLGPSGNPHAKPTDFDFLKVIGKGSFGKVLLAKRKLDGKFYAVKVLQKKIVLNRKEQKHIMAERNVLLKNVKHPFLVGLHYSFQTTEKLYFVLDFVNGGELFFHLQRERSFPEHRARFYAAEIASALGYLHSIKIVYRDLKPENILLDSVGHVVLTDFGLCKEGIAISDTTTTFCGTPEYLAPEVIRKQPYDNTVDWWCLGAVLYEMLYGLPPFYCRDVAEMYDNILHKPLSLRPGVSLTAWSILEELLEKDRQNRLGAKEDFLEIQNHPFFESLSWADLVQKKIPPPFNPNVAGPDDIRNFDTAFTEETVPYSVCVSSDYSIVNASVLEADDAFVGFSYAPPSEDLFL
In words: Selectivity interaction (KinomeScan (DiscoverX)) EUB0000607a SGK3. To be noted: at 10 µM.

Assay [5] has as its target Tyrosine-protein kinase receptor UFO (Homo sapiens) (UniProt P30530). In words: Selectivity interaction (KinomeScan (DiscoverX)) EUB0000655a AXL. To be noted: at 10 µM.
Assay [6] addresses Serine/threonine-protein kinase tousled-like 2 (Homo sapiens) (UniProt Q86UE8). In words: Selectivity interaction (ActivX KiNativ screen (kinase selectivity in THP-1 cell lysates)) EUB0000639a TLK2. The class given is subcellular. As to conditions: lysate, at 5 µM.
Assay [7] addresses Serine/threonine-protein kinase N1 (Homo sapiens, UniProt Q16512). In words: Selectivity interaction (ActivX KiNativ screen (kinase selectivity in THP-1 cell lysates)) EUB0000639a PKN1. As to conditions: lysate, at 1 µM. In kind it is subcellular.
The target of assay [8] is Serine/threonine-protein kinase pim-2 (Homo sapiens, UniProt Q9P1W9).
Sequence of Serine/threonine-protein kinase pim-2 (Q9P1W9 whole entry): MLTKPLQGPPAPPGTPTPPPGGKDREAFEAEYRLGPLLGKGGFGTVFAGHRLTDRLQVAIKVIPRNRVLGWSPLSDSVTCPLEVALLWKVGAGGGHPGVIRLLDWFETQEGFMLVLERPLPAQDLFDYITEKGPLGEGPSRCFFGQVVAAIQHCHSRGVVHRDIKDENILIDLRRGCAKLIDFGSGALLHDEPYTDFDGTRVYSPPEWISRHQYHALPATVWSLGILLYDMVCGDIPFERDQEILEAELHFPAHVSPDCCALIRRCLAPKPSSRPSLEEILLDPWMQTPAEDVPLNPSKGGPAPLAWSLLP
The target of assay [9] is Death-associated protein kinase 1 (Homo sapiens, UniProt P53355). In words: Selectivity interaction (KinomeScan (DiscoverX)) EUB0001049a DAPK1. To be noted: at 1 µM.
Sequence of Death-associated protein kinase 1 (P53355 whole entry, looked up): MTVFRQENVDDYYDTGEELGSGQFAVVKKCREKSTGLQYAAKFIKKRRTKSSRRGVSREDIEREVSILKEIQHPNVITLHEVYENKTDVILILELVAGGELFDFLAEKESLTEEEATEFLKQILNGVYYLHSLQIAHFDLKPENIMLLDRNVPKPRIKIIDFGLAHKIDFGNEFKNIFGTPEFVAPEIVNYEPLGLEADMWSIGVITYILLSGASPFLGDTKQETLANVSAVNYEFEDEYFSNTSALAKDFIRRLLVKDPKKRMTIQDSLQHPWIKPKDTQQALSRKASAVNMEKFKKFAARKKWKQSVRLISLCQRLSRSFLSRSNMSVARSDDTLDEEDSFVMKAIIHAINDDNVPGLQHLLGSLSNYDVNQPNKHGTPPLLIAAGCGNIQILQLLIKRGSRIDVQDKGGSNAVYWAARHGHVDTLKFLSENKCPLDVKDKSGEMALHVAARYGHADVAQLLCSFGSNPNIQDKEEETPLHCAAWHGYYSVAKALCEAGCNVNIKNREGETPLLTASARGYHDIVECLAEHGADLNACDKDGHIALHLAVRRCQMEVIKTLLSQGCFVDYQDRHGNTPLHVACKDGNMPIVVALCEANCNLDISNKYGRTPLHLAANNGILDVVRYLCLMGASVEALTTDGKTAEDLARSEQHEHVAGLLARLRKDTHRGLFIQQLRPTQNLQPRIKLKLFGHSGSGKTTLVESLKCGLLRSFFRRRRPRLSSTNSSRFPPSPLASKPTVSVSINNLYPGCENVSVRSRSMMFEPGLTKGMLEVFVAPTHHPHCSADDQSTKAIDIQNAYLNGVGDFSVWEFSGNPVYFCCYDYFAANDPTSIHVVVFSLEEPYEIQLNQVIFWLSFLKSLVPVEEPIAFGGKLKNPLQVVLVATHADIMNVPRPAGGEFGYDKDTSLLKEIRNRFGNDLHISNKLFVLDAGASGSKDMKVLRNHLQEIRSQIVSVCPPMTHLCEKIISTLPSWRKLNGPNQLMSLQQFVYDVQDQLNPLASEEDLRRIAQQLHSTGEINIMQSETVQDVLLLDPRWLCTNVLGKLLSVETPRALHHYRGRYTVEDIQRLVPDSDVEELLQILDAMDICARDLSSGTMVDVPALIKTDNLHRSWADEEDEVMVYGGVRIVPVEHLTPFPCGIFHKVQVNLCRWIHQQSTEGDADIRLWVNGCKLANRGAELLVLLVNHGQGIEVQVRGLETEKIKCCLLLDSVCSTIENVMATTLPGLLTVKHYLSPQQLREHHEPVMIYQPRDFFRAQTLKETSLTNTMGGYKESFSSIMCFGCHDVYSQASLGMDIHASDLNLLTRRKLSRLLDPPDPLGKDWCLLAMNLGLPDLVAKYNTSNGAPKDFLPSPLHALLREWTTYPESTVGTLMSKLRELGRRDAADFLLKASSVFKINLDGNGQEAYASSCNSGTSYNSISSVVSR
In assay [10] the target is T4, Cytoplasmic tyrosine-protein kinase BMX (Homo sapiens) (UniProt P51813).
T4 sequence (whole entry): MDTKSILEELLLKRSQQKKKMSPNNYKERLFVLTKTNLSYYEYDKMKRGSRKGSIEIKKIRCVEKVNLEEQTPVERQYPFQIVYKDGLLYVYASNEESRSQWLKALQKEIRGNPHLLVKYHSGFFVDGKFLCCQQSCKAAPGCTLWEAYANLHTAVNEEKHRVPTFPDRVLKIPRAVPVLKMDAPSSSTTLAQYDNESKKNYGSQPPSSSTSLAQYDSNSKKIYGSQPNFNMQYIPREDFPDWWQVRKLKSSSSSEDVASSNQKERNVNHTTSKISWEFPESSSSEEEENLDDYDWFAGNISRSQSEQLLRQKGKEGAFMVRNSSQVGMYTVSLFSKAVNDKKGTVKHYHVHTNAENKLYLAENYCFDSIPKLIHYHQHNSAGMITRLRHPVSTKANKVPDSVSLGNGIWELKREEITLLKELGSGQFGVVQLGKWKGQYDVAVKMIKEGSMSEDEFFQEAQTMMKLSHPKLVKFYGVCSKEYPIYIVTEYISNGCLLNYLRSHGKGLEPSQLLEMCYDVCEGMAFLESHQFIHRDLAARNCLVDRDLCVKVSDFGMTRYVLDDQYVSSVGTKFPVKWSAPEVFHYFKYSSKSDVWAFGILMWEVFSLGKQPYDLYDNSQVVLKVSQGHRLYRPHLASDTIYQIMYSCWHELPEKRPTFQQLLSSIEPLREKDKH
The experiment in a line: Selectivity interaction (KinomeScan (DiscoverX)) EUB0000595a BMX. To be noted: at 10 µM.

Sequence of Tyrosine-protein kinase receptor UFO (Homo sapiens) (P30530 whole entry): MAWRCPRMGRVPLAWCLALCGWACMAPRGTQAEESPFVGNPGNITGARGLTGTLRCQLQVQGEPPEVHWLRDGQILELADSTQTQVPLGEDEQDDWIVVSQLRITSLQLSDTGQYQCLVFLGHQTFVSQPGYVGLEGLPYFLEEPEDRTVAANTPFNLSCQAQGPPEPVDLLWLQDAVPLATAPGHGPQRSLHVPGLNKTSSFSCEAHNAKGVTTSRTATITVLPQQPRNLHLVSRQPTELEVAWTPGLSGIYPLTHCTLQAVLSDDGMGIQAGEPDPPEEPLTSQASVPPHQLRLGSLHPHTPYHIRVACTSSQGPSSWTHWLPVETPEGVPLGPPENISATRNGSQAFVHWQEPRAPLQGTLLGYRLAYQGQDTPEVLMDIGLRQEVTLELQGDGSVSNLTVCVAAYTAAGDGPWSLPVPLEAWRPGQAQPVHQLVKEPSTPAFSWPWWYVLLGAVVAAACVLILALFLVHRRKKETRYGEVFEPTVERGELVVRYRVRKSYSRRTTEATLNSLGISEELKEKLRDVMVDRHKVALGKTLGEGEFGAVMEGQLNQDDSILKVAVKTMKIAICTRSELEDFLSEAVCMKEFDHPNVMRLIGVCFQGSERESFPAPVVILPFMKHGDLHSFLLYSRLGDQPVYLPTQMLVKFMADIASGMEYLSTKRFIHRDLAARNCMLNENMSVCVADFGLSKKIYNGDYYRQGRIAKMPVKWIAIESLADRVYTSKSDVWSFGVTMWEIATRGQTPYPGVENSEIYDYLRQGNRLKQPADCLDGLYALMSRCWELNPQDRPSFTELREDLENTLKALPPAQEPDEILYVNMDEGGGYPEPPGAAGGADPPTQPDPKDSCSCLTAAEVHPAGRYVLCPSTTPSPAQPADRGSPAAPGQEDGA
Sequence of MAP kinase-activated protein kinase 3 (Homo sapiens) (Q16644 whole entry, looked up): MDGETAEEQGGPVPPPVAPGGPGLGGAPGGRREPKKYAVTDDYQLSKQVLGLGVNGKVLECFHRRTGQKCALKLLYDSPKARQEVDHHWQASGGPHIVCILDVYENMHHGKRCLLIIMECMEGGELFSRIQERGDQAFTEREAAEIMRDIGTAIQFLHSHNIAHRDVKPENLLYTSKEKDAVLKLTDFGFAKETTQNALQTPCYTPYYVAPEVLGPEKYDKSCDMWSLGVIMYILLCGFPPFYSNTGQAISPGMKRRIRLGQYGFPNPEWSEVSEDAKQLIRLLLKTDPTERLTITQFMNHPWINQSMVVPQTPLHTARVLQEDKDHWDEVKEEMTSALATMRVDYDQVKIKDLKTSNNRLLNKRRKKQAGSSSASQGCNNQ
Sequence of Serine/threonine-protein kinase tousled-like 2 (Homo sapiens) (Q86UE8 whole entry, looked up): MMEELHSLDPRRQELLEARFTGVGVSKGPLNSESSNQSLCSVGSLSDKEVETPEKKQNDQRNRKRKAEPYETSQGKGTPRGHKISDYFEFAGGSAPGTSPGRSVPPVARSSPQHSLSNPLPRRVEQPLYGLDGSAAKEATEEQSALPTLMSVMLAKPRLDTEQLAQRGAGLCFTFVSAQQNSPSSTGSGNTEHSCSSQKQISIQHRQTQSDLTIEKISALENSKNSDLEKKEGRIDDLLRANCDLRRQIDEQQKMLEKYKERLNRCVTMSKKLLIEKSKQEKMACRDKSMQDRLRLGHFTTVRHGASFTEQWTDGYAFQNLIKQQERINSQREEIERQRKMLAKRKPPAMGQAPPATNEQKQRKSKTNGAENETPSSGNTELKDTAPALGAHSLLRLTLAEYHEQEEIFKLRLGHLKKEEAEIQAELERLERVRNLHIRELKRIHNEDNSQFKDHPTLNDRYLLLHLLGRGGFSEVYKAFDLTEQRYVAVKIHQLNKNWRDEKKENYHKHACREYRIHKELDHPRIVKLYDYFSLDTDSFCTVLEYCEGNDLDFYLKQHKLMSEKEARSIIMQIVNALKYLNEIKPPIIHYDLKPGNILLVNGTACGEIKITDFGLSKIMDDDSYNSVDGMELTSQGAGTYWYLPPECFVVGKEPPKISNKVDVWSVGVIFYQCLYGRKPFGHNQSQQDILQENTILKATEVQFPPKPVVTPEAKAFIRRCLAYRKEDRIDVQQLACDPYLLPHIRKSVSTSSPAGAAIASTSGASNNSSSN
Sequence of Serine/threonine-protein kinase N1 (Q16512 2-942 limits assumed): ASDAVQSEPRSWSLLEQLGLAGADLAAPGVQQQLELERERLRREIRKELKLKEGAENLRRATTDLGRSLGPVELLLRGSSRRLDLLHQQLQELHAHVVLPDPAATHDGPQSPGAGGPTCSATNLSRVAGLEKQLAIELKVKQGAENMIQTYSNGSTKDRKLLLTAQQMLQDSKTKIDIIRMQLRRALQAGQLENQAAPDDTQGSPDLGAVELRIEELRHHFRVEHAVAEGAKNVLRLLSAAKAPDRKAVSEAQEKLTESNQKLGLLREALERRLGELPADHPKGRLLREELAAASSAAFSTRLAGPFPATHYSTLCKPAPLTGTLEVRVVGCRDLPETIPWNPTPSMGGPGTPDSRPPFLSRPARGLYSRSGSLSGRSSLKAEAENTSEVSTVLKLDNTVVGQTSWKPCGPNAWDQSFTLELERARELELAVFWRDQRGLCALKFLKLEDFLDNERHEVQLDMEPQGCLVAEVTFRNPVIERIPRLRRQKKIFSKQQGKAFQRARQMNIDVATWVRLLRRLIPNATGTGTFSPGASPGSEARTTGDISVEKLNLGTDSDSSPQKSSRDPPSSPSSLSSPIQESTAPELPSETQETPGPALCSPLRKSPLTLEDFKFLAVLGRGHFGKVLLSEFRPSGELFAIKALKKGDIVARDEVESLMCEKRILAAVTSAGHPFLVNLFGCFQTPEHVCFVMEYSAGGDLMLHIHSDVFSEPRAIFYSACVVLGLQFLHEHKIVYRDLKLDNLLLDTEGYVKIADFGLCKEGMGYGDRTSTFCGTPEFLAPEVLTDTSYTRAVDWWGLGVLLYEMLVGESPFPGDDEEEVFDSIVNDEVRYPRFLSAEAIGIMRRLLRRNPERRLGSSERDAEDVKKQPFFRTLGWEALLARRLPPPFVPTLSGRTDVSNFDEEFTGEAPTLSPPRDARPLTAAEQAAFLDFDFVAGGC

In the case of `CN(C)C/C=C/C(=O)Nc1ccc(C(=O)N2CCCC(Nc3ncc(Cl)c(-c4c[nH]c5ccccc45)n3)C2)cc1` (stereo not given), the % of control in assay [1] amounted to 94%. `CNC(=O)Nc1ccc(-c2nc(N3CC4CCC(C3)O4)c3cnn(C4CCC5(CC4)OCCO5)c3n2)cc1`: the results for the % of inhibition in assay [2] and in assay [3] were 15% and 1%, respectively. Moreover, in assay [4], the % of control worked out at 100%. The molecule `CN(C)CCOc1ccc(-c2nc(-c3ccncc3)c(-c3ccc4c(c3)CC/C4=N\O)[nH]2)cc1` showed a % of control in assay [5] of 78%. Take `CC[C@@H]1[C@H](F)C(=O)N[C@@H]1COc1nccc2cc(C(N)=O)c(OC)cc12` [ZIMLOVISERTIB]: the % of inhibition in [6] was 80.5%; in assay [7], -0.1%.

One may read the IC50 as the concentration that inhibits the measured activity by half. The low end stands for higher potency, the high end for lower potency. As for `CCc1cccc(CC)c1NC(=O)c1nn(C)c2c1CCc1cnc(Nc3ccc(C(=O)NC4CCN(C)CC4)cc3OC(F)(F)F)nc1-2`, in assay [8], the IC50 was above 10 µM. Turning to `COc1cc(Nc2nc(C)cc(-c3cnn4nc(OC)ccc34)n2)cc(C(F)(F)F)c1`, the % of control in assay [9] came out at 88%. Molecule `COCC(=O)NC/C=C/c1ccc2ncnc(Nc3ccc(Oc4ccc(C)nc4)c(C)c3)c2c1` [CP-724714] gave a % of control in assay [10] of 73%.
